Source: patent US20240246966A1, “NEW PYRAZOLO[1,5-a] PYRIMIDINE DERIVATIVES AS SIGMA LIGANDS” (ACONDICIONAMIENTO TARRASENSE, priority 2021, published 2024)

Legend:
Human σ1 Receptor = molecular target: T1, Human σ1 Receptor (Homo sapiens, UniProt Q99720); experiment: Human σ1 receptor radioligand assay ([3H](+)-pentazocine, transfected HEK-293 membranes); conditions: human σ1, [3H](+)-pentazocine 5 nM, binding expressed as Ki, read-out: Binding σ-1
T1 construct: expressed in transfected cells; host or cells: HEK-293
T1 sequence (Q99720 whole entry): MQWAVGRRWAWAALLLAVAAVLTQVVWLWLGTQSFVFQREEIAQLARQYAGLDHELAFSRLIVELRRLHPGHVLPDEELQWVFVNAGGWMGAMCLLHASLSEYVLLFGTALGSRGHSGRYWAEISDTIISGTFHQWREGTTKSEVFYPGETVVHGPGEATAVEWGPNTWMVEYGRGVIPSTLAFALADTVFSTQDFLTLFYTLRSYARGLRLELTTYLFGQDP
Procedure: Human σ1 Receptor Radioligand Assay
Transfected HEK-293 membranes (7 μg) were incubated with 5 nM of [^3H](+)-pentazocine in assay buffer containing Tris-HCl 50 mM at pH 8. NBS (non-specific binding) was measured by adding 10 μM haloperidol. The binding of the test compound was measured at either one concentration (% inhibition at 1 or 10 μM) or five different concentrations to determine affinity values (Ki). Plates were incubated at 37° C. for 120 minutes. After the incubation period, the reaction mix was then transferred to MultiScreen HTS, FC plates (Millipore), filtered and plates were washed 3 times with ice-cold 10 mM Tris-HCL (pH 7.4). Filters were dried and counted at approximately 40% efficiency in a MicroBeta scintillation counter (Perkin-Elmer) using EcoScint liquid scintillation cocktail.

Human σ2/TMEM97 receptor = molecular target: T2, Human σ2/TMEM97 receptor (Homo sapiens, UniProt Q5BJF2); experiment: Binding assay to human σ2/TMEM97 receptor ([3H]-DTG, transfected HEK-293 membranes); conditions: human σ2/TMEM97, [3H]-DTG 10 nM, binding expressed as Ki, read-out: Binding σ-2
T2 construct: expressed in transfected cells; host or cells: HEK-293
T2 sequence (Q5BJF2 whole entry): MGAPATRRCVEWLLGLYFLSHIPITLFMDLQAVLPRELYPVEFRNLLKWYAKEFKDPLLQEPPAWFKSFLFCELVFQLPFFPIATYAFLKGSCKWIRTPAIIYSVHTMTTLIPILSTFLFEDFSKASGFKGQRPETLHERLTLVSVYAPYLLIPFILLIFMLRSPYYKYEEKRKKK
Procedure: Binding Assay to Human ρ2/TMEM97 Receptor
Transfected HEK-293 membranes (15 μg) were incubated with 10 nM [^3H]-1,3-Di-o-tolylguanidine ( DTG) in assay buffer containing Tris-HCl 50 mM at pH 8.0. NSB (non-specific binding) was measured by adding 10 μM haloperidol. The binding of the test compound was measured at either one concentration (% inhibition at 1 or 10 μM) or five different concentrations to determine affinity values (Ki). Plates were incubated at 25° C. for 120 minutes. After the incubation period, the reaction mix was transferred to MultiScreen HTS, FC plates (Millipore), filtered and washed 3 times with ice-cold 10 mM Tris-HCL (pH 8.0). Filters were dried and counted at approximately 40% efficiency in a MicroBeta scintillation counter (Perkin-Elmer) using EcoScint liquid scintillation cocktail.

Row | Compound | Ki (Human σ1 Receptor) [nM] | Ki (Human σ2/TMEM97 receptor) [nM]
1 | Cc1cc(-c2cnn3cc(CN4CC5(CCOCC5)C4)cnc23)ccn1 [Example 27, 2-((3-(2-Methylpyridin-4-yl)pyrazolo[1,5-a]pyrimidin-6-yl)methyl)-7-oxa-2-azaspiro[3.5]nonane] | < 100 | > 1000
2 | COCC1CCN(Cc2cnc3c(-c4ccnc(C(F)(F)F)c4)cnn3c2)CC1 [Example 28, 6-((4-(Methoxymethyl)piperidin-1-yl)methyl)-3-(2-(trifluoromethyl)pyridin-4-yl)pyrazolo[1,5-a]pyrimidine] | < 100 | 500 to 1000
3 | FC(F)(F)c1cc(-c2cnn3cc(CN4CCOCC4)cnc23)ccn1 [Example 29, 4-((3-(2-(Trifluoromethyl)pyridin-4-yl)pyrazolo[1,5-a]pyrimidin-6-yl)methyl)morpholine] | > 1000 | > 1000
4 | CCOCC1CCN(Cc2cnc3c(-c4ccnc(C(F)(F)F)c4)cnn3c2)CC1 [Example 30, 6-((4-(Ethoxymethyl)piperidin-1-yl)methyl)-3-(2-(trifluoromethyl)pyridin-4-yl)pyrazolo[1,5-a]pyrimidine] | < 100 | 500 to 1000
5 | FC(F)(F)c1cc(-c2cnn3cc(CN4CCCOCC4)cnc23)ccn1 [Example 31, 4-((3-(2-(Trifluoromethyl)pyridin-4-yl)pyrazolo[1,5-a]pyrimidin-6-yl)methyl)-1,4-oxazepane] | < 100 | 100 to 500
6 | FC(F)(F)c1cc(-c2cnn3cc(CN4CCC5(CCOCC5)CC4)cnc23)ccn1 [Example 32, 9-((3-(2-(Trifluoromethyl)pyridin-4-yl)pyrazolo[1,5-a]pyrimidin-6-yl)methyl)-3-oxa-9-azaspiro[5.5]undecane] | < 100 | 100 to 500
7 | FC(F)(F)c1cc(-c2cnn3cc(CN4CC5(CCOCC5)C4)cnc23)ccn1 [Example 33, 2-((3-(2-(Trifluoromethyl)pyridin-4-yl)pyrazolo[1,5-a]pyrimidin-6-yl)methyl)-7-oxa-2-azaspiro[3.5]nonane] | < 100 | > 1000
8 | COC1CCN(Cc2cnc3c(-c4ccnc(C(F)(F)F)c4)cnn3c2)CC1 [Example 34, 6-((4-Methoxypiperidin-1-yl)methyl)-3-(2-(trifluoromethyl)pyridin-4-yl)pyrazolo[1,5-a]pyrimidine] | < 100 | > 1000
9 | FC(F)(F)c1cc(-c2cnn3cc(CN4CCN(C5COC5)CC4)cnc23)ccn1 [Example 35, 6-((4-(Oxetan-3-yl)piperazin-1-yl)methyl)-3-(2-(trifluoromethyl)pyridin-4-yl)pyrazolo[1,5-a]pyrimidine] | 500 to 1000 | > 1000
10 | OC1CCN(Cc2cnc3c(-c4ccnc(C(F)(F)F)c4)cnn3c2)CC1 [Example 36, 1-((3-(2-(Trifluoromethyl)pyridin-4-yl)pyrazolo[1,5-a]pyrimidin-6-yl)methyl)piperidin-4-ol] | < 100 | > 1000
11 | Cc1nc2c(-c3ccnc(C(F)(F)F)c3)cnn2c(C)c1CN1CCC2(CC1)COC2 [Example 37, 7-((5,7-Dimethyl-3-(2-(trifluoromethyl)pyridin-4-yl)pyrazolo[1,5-a]pyrimidin-6-yl)methyl)-2-oxa-7-azaspiro[3.5]nonane] | < 100 | 500 to 1000
12 | FC(F)(F)c1cc(-n2ccc3cc(CN4CCC5(CC4)COC5)cnc32)ccn1 [Example 38, 7-((1-(2-(Trifluoromethyl)pyridin-4-yl)-1H-pyrrolo[2,3-b]pyridin-5-yl)methyl)-2-oxa-7-azaspiro[3.5]nonane] | < 100 | 100 to 500
13 | COCC1CCN(Cc2cnc3c(ccn3-c3ccnc(C(F)(F)F)c3)c2)CC1 [Example 39, 5-((4-(Methoxymethyl)piperidin-1-yl)methyl)-1-(2-(trifluoromethyl)pyridin-4-yl)-1H-pyrrolo[2,3-b]pyridine] | < 100 | 100 to 500
14 | CCOCC1CCN(Cc2cnc3c(ccn3-c3ccnc(C(F)(F)F)c3)c2)CC1 [Example 40, 5-((4-(Ethoxymethyl)piperidin-1-yl)methyl)-1-(2-(trifluoromethyl)pyridin-4-yl)-1H-pyrrolo[2,3-b]pyridine] | < 100 | 100 to 500
15 | COCC1CCN(Cc2cnc3c(ccn3-c3ccc(C(F)(F)F)nc3)c2)CC1 [Example 41, 5-((4-(Methoxymethyl)piperidin-1-yl)methyl)-1-(6-(trifluoromethyl)pyridin-3-yl)-1H-pyrrolo[2,3-b]pyridine] | < 100 | 100 to 500
16 | FC(F)(F)c1ccc(-n2ccc3cc(CN4CCC5(CC4)COC5)cnc32)cn1 [Example 42, 7-((1-(6-(Trifluoromethyl)pyridin-3-yl)-1H-pyrrolo[2,3-b]pyridin-5-yl)methyl)-2-oxa-7-azaspiro[3.5]nonane] | < 100 | 100 to 500
17 | FC(F)(F)c1cc(-n2ccc3cc(CN4CCC5(CCOC5)CC4)cnc32)ccn1 [Example 43, 8-((1-(2-(Trifluoromethyl)pyridin-4-yl)-1H-pyrrolo[2,3-b]pyridin-5-yl)methyl)-2-oxa-8-azaspiro[4.5]decane] | < 100 | 100 to 500
18 | COCC1CCN(Cc2cnc3c(ccn3-c3cccnc3C(F)(F)F)c2)CC1 [Example 44, 5-((4-(Methoxymethyl)piperidin-1-yl)methyl)-1-(2-(trifluoromethyl)pyridin-3-yl)-1H-pyrrolo[2,3-b]pyridine] | < 100 | 100 to 500
19 | FC(F)(F)c1ncccc1-n1ccc2cc(CN3CCC4(CCOCC4)CC3)cnc21 [Example 45, 9-((1-(2-(Trifluoromethyl)pyridin-3-yl)-1H-pyrrolo[2,3-b]pyridin-5-yl)methyl)-3-oxa-9-azaspiro[5.5]undecane] | < 100 | 100 to 500
20 | FC(F)(F)c1cc(-n2ccc3cc(CN4CCC5(CCOCC5)CC4)cnc32)ccn1 [Example 46, 9-((1-(2-(Trifluoromethyl)pyridin-4-yl)-1H-pyrrolo[2,3-b]pyridin-5-yl)methyl)-3-oxa-9-azaspiro[5.5]undecane] | < 100 | < 100
21 | FC(F)(F)c1cc(-n2ccc3cc(CN4CC5(CCOCC5)C4)cnc32)ccn1 [Example 47, 2-((1-(2-(Trifluoromethyl)53yridine-4-yl)-1H-pyrrolo[2,3-b]53yridine-5-yl)methyl)-7-oxa-2-azaspiro[3.5]nonane] | < 100 | < 100
22 | FC(F)(F)c1ccc(-n2ccc3cc(CN4CCC5(CCOCC5)CC4)cnc32)cn1 [Example 48, 9-((1-(6-(Trifluoromethyl)pyridin-3-yl)-1H-pyrrolo[2,3-b]pyridin-5-yl)methyl)-3-oxa-9-azaspiro[5.5]undecane] | < 100 | 100 to 500
23 | COC1CCN(Cc2cnc3c(ccn3-c3ccnc(C(F)(F)F)c3)c2)CC1 [Example 49, 5-((4-Methoxypiperidin-1-yl)methyl)-1-(2-(trifluoromethyl)pyridin-4-yl)-1H-pyrrolo[2,3-b]pyridine] | < 100 | 500 to 1000
24 | FC(F)(F)c1cc(-n2ccc3cc(CN4CCCOCC4)cnc32)ccn1 [Example 50, 4-((1-(2-(Trifluoromethyl)pyridin-4-yl)-1H-pyrrolo[2,3-b]pyridin-5-yl)methyl)-1,4-oxazepane] | < 100 | > 1000
25 | COC1CCN(Cc2cnc3c(ccn3-c3ccc(C(F)(F)F)nc3)c2)CC1 [Example 51, 5-((4-Methoxypiperidin-1-yl)methyl)-1-(6-(trifluoromethyl)pyridin-3-yl)-1H-pyrrolo[2,3-b]pyridine] | < 100 | 500 to 1000
26 | FC(F)(F)c1ccc(-n2ccc3cc(CN4CCCOCC4)cnc32)cn1 [Example 52, 4-((1-(6-(Trifluoromethyl)pyridin-3-yl)-1H-pyrrolo[2,3-b]pyridin-5-yl)methyl)-1,4-oxazepane] | < 100 | 500 to 1000
27 | N#Cc1ncccc1-n1ccc2cc(CN3CCC4(CCOCC4)CC3)cnc21 [Example 53, 3-(5-((3-Oxa-9-azaspiro[5.5]undecan-9-yl)methyl)-1H-pyrrolo[2,3-b]pyridin-1-yl) picolinonitrile] | < 100 | 500 to 1000
28 | FC(F)(F)c1ncccc1-n1ccc2cc(CN3CCC4(CCOC4)CC3)cnc21 [Example 54, 8-((1-(2-(Trifluoromethyl)pyridin-3-yl)-1H-pyrrolo[2,3-b]pyridin-5-yl)methyl)-2-oxa-8-azaspiro[4.5]decane] | < 100 | 500 to 1000
29 | FC(F)(F)c1ccc(-n2ccc3cc(CN4CC5(CCOCC5)C4)cnc32)cn1 [Example 55, 2-((1-(6-(Trifluoromethyl)pyridin-3-yl)-1H-pyrrolo[2,3-b]pyridin-5-yl)methyl)-7-oxa-2-azaspiro[3.5]nonane] | < 100 | 100 to 500
30 | FC(F)(F)c1ncccc1-n1ccc2cc(CN3CC4(CCOCC4)C3)cnc21 [Example 56, 2-((1-(2-(Trifluoromethyl)pyridin-3-yl)-1H-pyrrolo[2,3-b]pyridin-5-yl)methyl)-7-oxa-2-azaspiro[3.5]nonane] | < 100 | > 1000
